Laboratory results reported in patent publication US20260042755A1, “GPR6 INVERSE AGONISTS” (MapLight Therapeutics, Inc., priority 2022, published 2026).

Legend:
[1] = target: T1, GPR6 (Homo sapiens, UniProt P46095); assay: GPR6 antagonist functional cAMP assay (LANCE Ultra cAMP TR-FRET, CHO cells stably expressing GPR6); type: cell-based
T1 construct: expressed in transfected cells; host or cells: CHO cells
Method in brief: (§1)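 Cells in Krebs-Ringer buffer with 0.1% BSA and 150 μM Ro 20-1724 PDE inhibitor were exposed to compounds for 45 min at 37 °C (0.1% DMSO). cAMP was read by TR-FRET at 665 nm; IC50s came from 4-parameter fits normalized to DMSO and reference compound.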

[2] = target: T2, GPR3 (Homo sapiens, UniProt P46089); assay: GPR3 antagonist functional cAMP assay (LANCE Ultra cAMP TR-FRET, CHO cells stably expressing GPR3); type: cell-based
T2 construct: expressed in transfected cells; host or cells: CHO cells
T2 sequence (P46089 whole entry, species assumed): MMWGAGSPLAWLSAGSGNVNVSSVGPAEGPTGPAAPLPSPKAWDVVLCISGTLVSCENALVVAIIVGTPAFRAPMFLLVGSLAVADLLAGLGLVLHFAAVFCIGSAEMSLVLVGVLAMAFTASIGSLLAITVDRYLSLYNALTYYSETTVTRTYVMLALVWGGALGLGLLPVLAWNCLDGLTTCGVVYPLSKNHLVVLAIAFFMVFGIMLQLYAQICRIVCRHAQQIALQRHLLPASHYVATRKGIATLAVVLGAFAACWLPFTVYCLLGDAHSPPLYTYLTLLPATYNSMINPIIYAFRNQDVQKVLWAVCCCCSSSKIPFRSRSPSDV
Method in brief: as §1

[3] = procedure as described in Example 24

T1 sequence (P46095 whole entry): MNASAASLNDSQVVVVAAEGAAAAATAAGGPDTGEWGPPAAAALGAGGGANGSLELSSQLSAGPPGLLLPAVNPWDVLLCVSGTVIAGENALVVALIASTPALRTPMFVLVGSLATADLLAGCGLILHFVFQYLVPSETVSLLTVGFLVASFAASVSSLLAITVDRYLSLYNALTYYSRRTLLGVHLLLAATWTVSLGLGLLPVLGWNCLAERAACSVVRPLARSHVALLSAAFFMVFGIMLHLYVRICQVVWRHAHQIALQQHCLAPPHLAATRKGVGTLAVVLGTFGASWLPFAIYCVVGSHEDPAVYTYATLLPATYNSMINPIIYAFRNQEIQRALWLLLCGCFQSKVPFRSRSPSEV

SMILES | IC50 ([1]; procedure of Example 24) [nM] | IC50 ([2]; procedure of Example 24) [nM] | IC50 [1, 3] [nM] | IC50 [2, 3] [nM]
CC(C)(O)C(O)c1cc2nc(-c3cnn(C(F)F)c3)c(N3CCC(=Cc4ccc(F)cc4F)CC3)nc2cn1 (single isomer, unassigned) [Compound 766] | 100 to 1000 | 1000 to 30000 | – | –
CC(C)(O)C(O)c1cc2nc(-c3cnn(C(F)F)c3)c(N3CCC(=Cc4ccc(F)cc4F)CC3)nc2cn1 (single isomer, unassigned) [Compound 767] | 100 to 1000 | 1000 to 30000 | – | –
CC(C)(O)C(O)c1cc2nc(-c3cnn(CF)c3)c(N3CCC(=Cc4ccc(F)cc4F)CC3)nc2cn1 (single isomer, unassigned) [Compound 771] | 100 to 1000 | 100 to 1000 | – | –
Cn1cc(-c2nc3cc([C@@](C)(O)C(C)(C)O)ncc3nc2N2CCN(Cc3ccc(F)cc3F)CC2)cn1 (single isomer, unassigned) [Compound 772] | 100 to 1000 | 100 to 1000 | – | –
Cn1cc(-c2nc3cc([C@](C)(O)C(C)(C)O)ncc3nc2N2CCN(Cc3ccc(F)cc3F)CC2)cn1 (single isomer, unassigned) [Compound 773] | 100 to 1000 | 100 to 1000 | – | –
CC(C)(O)[C@](C)(O)c1cc2nc(-c3cnn(C4CC4)c3)c(N3CCN(Cc4ccccc4F)CC3)nc2cn1 (single isomer, unassigned) [Compound 775] | 100 to 1000 | 1000 to 30000 | – | –
CC(C)(O)[C@@](C)(O)c1cc2nc(-c3cnn(C4CC4)c3)c(N3CCN(Cc4ccccc4F)CC3)nc2cn1 (single isomer, unassigned) [Compound 776] | 100 to 1000 | 1000 to 30000 | – | –
CC(C)(O)C(O)c1cc2nc(-c3cnn(CF)c3)c(N3CCC(=Cc4ccc(F)cc4F)CC3)nc2cn1 (single isomer, unassigned) [Compound 777] | 100 to 1000 | 100 to 1000 | – | –
CC(C)(O)[C@@H](O)c1cc2nc(N3CCC(=Cc4ccc(F)cc4F)CC3)c(-c3cnn(C(F)F)c3)nc2cn1 (single isomer, unassigned) [Compound 778] | 100 to 1000 | 1000 to 30000 | – | –
CC(C)(O)[C@H](O)c1cc2nc(-c3cnn(C4CC4)c3)c(N3CCN(Cc4ccccc4F)CC3)nc2cn1 (single isomer, unassigned) [Compound 781] | 100 to 1000 | 1000 to 30000 | – | –
CC(C)(O)[C@H](O)c1cc2nc(N3CCC(=Cc4ccc(F)cc4F)CC3)c(-c3cnn(CF)c3)nc2cn1 (single isomer, unassigned) [Compound 784] | < 100 | 1000 to 30000 | – | –
CC(C)(O)[C@@H](O)c1cc2nc(N3CCC(=Cc4ccc(F)cc4F)CC3)c(-c3cnn(CF)c3)nc2cn1 (single isomer, unassigned) [Compound 785] | < 100 | 1000 to 30000 | – | –
CC(C)(O)[C@](C)(O)c1cc2nc(-c3cnn(C(F)F)c3)c(N3CCN(Cc4cc(F)ccc4F)CC3)nc2cn1 (single isomer, unassigned) [Compound 795] | 100 to 1000 | 1000 to 30000 | – | –
Clc1ccc(Cl)c(CN2CCN(c3nc4ccncc4nc3-c3ncc[nH]3)CC2)c1 [Compound 5, 1-[(2,5-dichlorophenyl)methyl]-4-[3-(1H-imidazol-2-yl)pyrido[3,4-b]pyrazin-2-yl]piperazine] | – | – | 100 to 1000 | 1000 to 30000
CNC(=O)c1ccc2nc(-c3nccn3COC)c(N3CCN(Cc4cc(Cl)ccc4Cl)CC3)nc2c1 [Compound 6, 3-{4-[(2,5-dichlorophenyl)methyl]piperazin-1-yl}-2-[1-(methoxymethyl)-1H-imidazol-2-yl]-N-methylquinoxaline-6-carboxamide] | – | – | 1000 to 30000 | 1000 to 30000

The remaining lines, values ahead:

IC50 ([1]; procedure of Example 24) [nM] | IC50 ([2]; procedure of Example 24) [nM] | IC50 [1, 3] [nM] | IC50 [2, 3] [nM] | SMILES
< 100 | 100 to 1000 | – | – | Cn1cc(-c2nc3cc([C@@H](O)C(C)(C)O)ncc3nc2N2CCC(=Cc3ccc(F)cc3F)CC2)cn1 (single isomer, unassigned) [Compound 763]
< 100 | 100 to 1000 | – | – | Cn1cc(-c2nc3cc([C@H](O)C(C)(C)O)ncc3nc2N2CCC(=Cc3ccc(F)cc3F)CC2)cn1 (single isomer, unassigned) [Compound 764]
100 to 1000 | 1000 to 30000 | – | – | CC(C)(O)[C@@H](O)c1cc2nc(N3CCC(=Cc4ccc(F)cc4F)CC3)c(-c3cnn(C4CC4)c3)nc2cn1 (single isomer, unassigned) [Compound 769]
100 to 1000 | 1000 to 30000 | – | – | CC(C)(O)[C@H](O)c1cc2nc(N3CCC(=Cc4ccc(F)cc4F)CC3)c(-c3cnn(C4CC4)c3)nc2cn1 (single isomer, unassigned) [Compound 770]
< 100 | 1000 to 30000 | – | – | CC(C)(O)[C@H](O)c1cc2nc(N3CCC(=Cc4ccc(F)cc4F)CC3)c(-c3cnn(C(F)F)c3)nc2cn1 (single isomer, unassigned) [Compound 779]
100 to 1000 | 1000 to 30000 | – | – | CC(C)(O)C(C)(O)c1cc2nc(-c3cnn(CF)c3)c(N3CCC(Oc4ccc(F)cc4F)CC3)nc2cn1 (single isomer, unassigned) [Compound 782]
100 to 1000 | 1000 to 30000 | – | – | CC(C)(O)[C@@](C)(O)c1cc2nc(-c3cnn(CF)c3)c(N3CCC(Oc4ccc(F)cc4F)CC3)nc2cn1 (single isomer, unassigned) [Compound 783]
< 100 | < 100 | – | – | CC(C)(O)[C@H](O)c1cc2nc(-c3cnn(CF)c3)c(N3CCC(Cc4ccc(F)cc4F)CC3)nc2cn1 (single isomer, unassigned) [Compound 787]
1000 to 30000 | 1000 to 30000 | – | – | CC(C)(O)[C@H](O)c1cc2nc(-c3cn[nH]c3)c(N3CCN(Cc4ccc(F)cc4F)CC3)nc2cn1 (single isomer, unassigned) [Compound 799]
100 to 1000 | 1000 to 30000 | – | – | CC(C)(O)[C@@H](O)c1cc2nc(-c3cn[nH]c3)c(N3CCN(Cc4ccc(F)cc4F)CC3)nc2cn1 (single isomer, unassigned) [Compound 800]
< 100 | 1000 to 30000 | – | – | Cn1cc(-c2nc3cc([C@H](O)C(C)(C)O)ncc3nc2N2CCN(Cc3ccc(F)cc3F)CC2)cn1 (stereo in doubt) [Compound 370, (Rel-S)-1-(3-(4-(2,4-difluorobenzyl)piperazin-1-yl)-2-(1-methyl-1H-pyrazol-4-yl)pyrido[3,4-b]pyrazin-7-yl)-2-methylpropane-1,2-diol]
– | – | 1000 to 30000 | 100 to 1000 | CC(=O)N1CCc2nc(N3CCC(Oc4ccc(F)cc4F)CC3)c(-c3ncn[nH]3)nc2C1 [Compound 1, 1-{2-[4-(2,4-difluorophenoxy)piperidin-1-yl]-3-(1H-1,2,4-triazol-5-yl)-5H,6H,7H,8H-pyrido[3,4-b]pyrazin-6-yl}ethan-1-one]
– | – | 100 to 1000 | 1000 to 30000 | CC(=O)N1CCc2nc(N3CCC(Oc4ccc(F)cc4F)CC3)c(-c3cccc(C#N)n3)nc2C1 [Compound 2, 6-{6-acetyl-2-[4-(2,4-difluorophenoxy)piperidin-1-yl]-5H,6H,7H,8H-pyrido[3,4-b]pyrazin-3-yl}pyridine-2-carbonitrile]
– | – | 100 to 1000 | 1000 to 30000 | CC(=O)N1CCc2nc(N3CCC(Oc4ccc(F)cc4F)CC3)c(-c3cnn(CC(F)F)c3)nc2C1 [Compound 3, 1-{3-[1-(2,2-difluoroethyl)-1H-pyrazol-4-yl]-2-[4-(2,4-difluorophenoxy)piperidin-1-yl]-5H,6H,7H,8H-pyrido[3,4-b]pyrazin-6-yl}ethan-1-one]
– | – | 100 to 1000 | 1000 to 30000 | Fc1ccc(Cl)cc1CN1CCN(c2nc3ccncc3nc2-c2cn[nH]c2)CC1 [Compound 4, 1-[(5-chloro-2-fluorophenyl)methyl]-4-[3-(1H-pyrazol-4-yl)pyrido[3,4-b]pyrazin-2-yl]piperazine]
– | – | 1000 to 30000 | 100 to 1000 | COc1ccnc(-c2nc3c(nc2N2CCC(Oc4ccc(F)cc4F)CC2)CCN(C(C)=O)C3)c1 [Compound 7, 1-(2-(4-(2,4-difluorophenoxy)piperidin-1-yl)-3-(4-methoxypyridin-2-yl)-7,8-dihydropyrido[3,4-b]pyrazin-6(5H)-yl)ethan-1-one]
– | – | 100 to 1000 | 1000 to 30000 | CC(=O)N1CCc2nc(N3CCC(Oc4ccc(F)cc4F)CC3)c(-c3cnsc3)nc2C1 [Compound 8, 1-{2-[4-(2,4-difluorophenoxy)piperidin-1-yl]-3-(1,2-thiazol-4-yl)-5H,6H,7H,8H-pyrido[3,4-b]pyrazin-6-yl}ethan-1-one]
– | – | 100 to 1000 | 100 to 1000 | Fc1ccc(OC2CCN(c3nc4ccncc4nc3-c3cn[nH]c3)CC2)c(F)c1 [Compound 9, 4-(2,4-difluorophenoxy)-1-[3-(1H-pyrazol-4-yl)pyrido[3,4-b]pyrazin-2-yl]piperidine]
– | – | 100 to 1000 | 1000 to 30000 | COc1ccc(-c2nc3c(nc2N2CCC(Oc4ccc(F)cc4F)CC2)CCN(C(C)=O)C3)nc1 [Compound 10]
– | – | 1000 to 30000 | 1000 to 30000 | CC(=O)N1CCc2nc(N3CCC(Oc4ccc(F)cc4F)CC3)c(-c3ccn[nH]3)nc2C1 [Compound 11, 1-{2-[4-(2,4-difluorophenoxy)piperidin-1-yl]-3-(1H-pyrazol-5-yl)-5H,6H,7H,8H-pyrido[3,4-b]pyrazin-6-yl}ethan-1-one]
– | – | 1000 to 30000 | 1000 to 30000 | CC(=O)N1CCc2nc(N3CCC(Oc4ccc(F)cc4F)CC3)c(-c3cncc(=O)[nH]3)nc2C1 [Compound 12, 6-{6-acetyl-2-[4-(2,4-difluorophenoxy)piperidin-1-yl]-5H,6H,7H,8H-pyrido[3,4-b]pyrazin-3-yl}-1,2-dihydropyrazin-2-one]
– | – | 1000 to 30000 | 100 to 1000 | CC(=O)N1CCc2nc(N3CCC(Oc4ccc(F)cc4F)CC3)c(-c3ccncn3)nc2C1 [Compound 13, 1-{2-[4-(2,4-difluorophenoxy)piperidin-1-yl]-3-(pyrimidin-4-yl)-5H,6H,7H,8H-pyrido[3,4-b]pyrazin-6-yl}ethan-1-one]
– | – | 100 to 1000 | 1000 to 30000 | COCn1cc(-c2nc3c(nc2N2CCC(Oc4ccc(F)cc4F)CC2)CCN(C(C)=O)C3)cn1 [Compound 14, 1-{2-[4-(2,4-difluorophenoxy)piperidin-1-yl]-3-[1-(methoxymethyl)-1H-pyrazol-4-yl]-5H,6H,7H,8H-pyrido[3,4-b]pyrazin-6-yl}ethan-1-one]
